Experimental data as given in patent US4892883A, “Pharmaceutical compositions containing bilobalide for the treatment of neuropathies Ai” (Willman - Schwabe GmbH & Co., priority 1973, dated 1990).

Columns and labels:
[1] = tested on: cholinergic mechanisms of the central nervous system; test: Stimulating effect on cholinergic mechanisms of the central nervous system; settings: in vivo
Description: The stimulating effects of the extract on the cholinergic system of the central nervous system were determined in various experiments. In one of these experiments the influence of the extract on the spontaneous climbing behaviour (SCB) was examined according to the method described by Marcais et al. (Psychopharmacology; 56, 233-234, 1978).

Escherichia coli = settings: cited from earlier work
[2] = tested on: existent neuropathies, neurological and mental functions; test: Clinical investigations; assay type: in vivo
[3] = tested on: male Sprague-Dawley rats given hexachlorophene (brain water and electrolyte contents); test: Protective effect against hexachlorophene intoxication (Experiment 2, Table II); assay type: in vivo, rat (Sprague-Dawley); settings: hexachlorophene i.p.
Description: In another experiment, male Sprague-Dawley rats (200-250 g body weight) receive intraperitoneal injections of 20 mg/kg hexachlorophene (suspended in 0.2% agar) for 2 days and only 10 mg/kg on the 3rd day. The test substances are administered orally after administration of hexachlorophene.
The control animals receive only 0.2% agar i.p. or tap water orally. On the 4th day, the animals are sacrificed and the water and electrolyte contents in the brain are determined. The body weight of the animals is measured daily throughout the 4 days.

Penicillium glaucum = settings: cited from earlier work
Monilia fructicola = settings: cited from earlier work
[4] = tested on: neuropathy on the triethyltin chloride model; test: Protective action against TET-induced neuropathy, hotplate test (Experiment 4, Table III); assay type: in vivo, rat (Sprague-Dawley); settings: TET 0.002%
Description: The investigations of the protective action against damage to myelin and its expression as neuropathy is likewise carried out on the triethyltin chloride model. When the animals are treated not for 14 days but for only 6 days with a 0.002 per cent TET solution administered in place of the drinking water, they show various signs of neuropathy although no cerebral oedema is detectable in this period. The neuropathy is quantified by measuring the consumption of food and water and by the changes in body weight. In addition, as a specific parameter, the pain reaction time in a hotplate test (at 50° C.) is measured (J. Pharm. Pharmacol., 9 (1957), 381).

mouse ear = settings: cited from earlier work
[5] = tested on: neuropathy on the triethyltin chloride model; test: Protective action against TET-induced neuropathy, hotplate test (Experiment 4, Table III); assay type: in vivo, rat (Sprague-Dawley); settings: overall conclusion of Experiments 1 to 5
[6] = tested on: neuropathy on the triethyltin chloride model; test: Curative action on TET-induced neuropathy, hotplate test (Experiment 5, Table IV); assay type: in vivo, rat (Sprague-Dawley); settings: for Body weight after intoxication / Food consumption after intoxication / Hotplate reaction time after intoxication / Water consumption after intoxication: after 6 days TET, before treatment
Description: In a similar manner, the curative action of bilobalid or extract containing bilobalide is investigated. The animals are offered a 0.002 per cent TET solution in place of drinking water for 6 days. Subsequently (from the 7th day), the TET solution is replaced by tap water and, simultaneously, the daily oral treatment is started. Treatment is continued for 6 days. The measured parameters (body weight, consumption of food and water, hotplate reaction time) are determined on the 6th day before the treatment and on the 14th day after the treatment.

[7] = tested on: male Sprague-Dawley rats given triethyltin chloride (brain water and electrolyte contents); test: Protective effect against triethyltin chloride (TET) intoxication (Experiment 1, Table I); assay type: in vivo, rat (Sprague-Dawley); settings: for Brain % water / Brain K^+ / Brain Na^+ / Brain Na^+ /K^+ / Mean body weight, 14 days / Mean body weight, initial: TET 0.002%
Description: Male Sprague-Dawley rats (200-300 g body weight) are offered an aqueous solution containing 0.002 per cent triethyltin chloride (abbreviated to TET) as drinking liquid for 14 days. Control animals received water. The Gingko biloba monoextract (EGB) with or without bilobalide and the various test substances are administered orally 1×daily throughout these 14 days. On day 15, the animals are sacrificed, the brain is removed and its water and electrolyte contents are determined. The body weight of the animals during the experiment is checked daily.

[8] = 5 mg/kg p.o. daily 6 days after TET
[9] = 10 mg/kg p.o. daily 6 days after TET

## CC(C)(C)C1(O)CC2OC(=O)CC23C(=O)OC2OC(=O)C(O)C231 (centres unmarked) [Bilobalide, bilobalide]
[1]
  stimulating effect on cholinergic mechanisms of the central nervous system: stimulating effect on the cholinergic mechanisms of the central nervous system
Escherichia coli
  bactericidal action: nor any bactericidal action
[2]
  effects on existent neuropathies, neurological and mental functions: favourable effects on existent neuropathies, neurological and mental functions
[3]; 5 mg/kg p.o.
  Mean body weight, 4th day: 270 g
[3]; 5 mg/kg p.o., 4th day
  Brain % water: 77.93 ± 0.17%
  Brain K^+: 414.5 ± 4.4 mmol/kg dry weight
  Brain Na^+: 187.9 ± 4.0 mmol/kg dry weight
  Brain Na^+ /K^+: 0.45 ± 0.01
[3]; 5 mg/kg p.o., initial
  Mean body weight, initial: 264 g
[3]; oral
  protection from cerebral oedema and reduction in body weight: protects the animals from the development of cerebral oedema and prevents the reduction in body weight
Penicillium glaucum
  fungicidal action: no fungicidal action
Monilia fructicola
  fungicidal action: no fungicidal action
[4]; 10 mg/kg/day p.o. 6 days
  Food consumption, final: 22.1 g/animal/day
  Mean body weight, final: 261 g
  Water consumption, final: 21.9 ml/animal/day
[4]; 10 mg/kg/day p.o. 6 days, 50° C.
  Hotplate reaction time, final: 17.9 s
[4]; 10 mg/kg/day p.o., 50° C., initial
  Hotplate reaction time, initial: 28.9 s
[4]; 10 mg/kg/day p.o., initial
  Food consumption, initial: 24.3 g/animal/day
  Mean body weight, initial: 241 g
  Water consumption, initial: 35.1 ml/animal/day
[4]; oral, 6 days
  protective action against neuropathic signs: good protective action against the neuropathic signs
Mouse ear
  inflammatory action: no inflammatory action
[5]
  prevention of neurotoxic signs and of cerebral oedema: prevents the occurrence of neurotoxic signs and of cerebral oedema
[6]; [8]
  Body weight after treatment: 242 g
  Food consumption after treatment: 17.4 g/animal/day
  Hotplate reaction time after treatment: 61.58 s
  Water consumption after treatment: 31.4 ml/animal/day
[6]; 5 mg/kg p.o. group
  Body weight after intoxication: 236 g
  Food consumption after intoxication: 10.4 g/animal/day
  Hotplate reaction time after intoxication: 88.1 ± 5.67 s
  Water consumption after intoxication: 11.4 ml/animal/day
[6]; [9]
  Body weight after treatment: 232 g
  Food consumption after treatment: 18.6 g/animal/day
  Hotplate reaction time after treatment: 48.58 ± 18.44 s
  Water consumption after treatment: 23.1 ml/animal/day
[6]; 10 mg/kg p.o. group
  Body weight after intoxication: 227 g
  Food consumption after intoxication: 8.9 g/animal/day
  Hotplate reaction time after intoxication: 87.36 ± 7.46 s
  Water consumption after intoxication: 12.7 ml/animal/day
[6]; overall conclusion
  regression of pre-existent damage: pre-existent damage can be made to regress more quickly
[7]; 5 mg/kg p.o. 1×daily 14 days
  Brain % water: 78.57 ± 0.19%
  Brain K^+: 418.9 ± 14.4 mmol/kg dry weight
  Brain Na^+: 162.6 ± 5.4 mmol/kg dry weight
  Brain Na^+ /K^+: 0.39 ± 0.020
  Mean body weight, 14 days: 323 g
[7]; 5 mg/kg p.o. 1×daily
  Mean body weight, initial: 288 g
[7]; 10 mg/kg p.o. 1×daily 14 days
  Brain % water: 78.16 ± 0.09%
  Brain K^+: 452.7 ± 12.9 mmol/kg dry weight
  Brain Na^+: 198.3 ± 2.74 mmol/kg dry weight
  Brain Na^+ /K^+: 0.44 ± 0.04
  Mean body weight, 14 days: 318 g
[7]; 10 mg/kg p.o. 1×daily
  Mean body weight, initial: 272 g
[7]; 20 mg/kg p.o. 1×daily 14 days
  Brain % water: 77.75 ± 0.11%
  Brain K^+: 400.6 mmol/kg dry weight
  Brain Na^+: 187.9 ± 10.4 mmol/kg dry weight
  Brain Na^+ /K^+: 0.45 ± 0.05
  Mean body weight, 14 days: 325 g
[7]; 20 mg/kg p.o. 1×daily
  Mean body weight, initial: 288 g
[7]; oral, TET 14 days
  protective effect against decrease in body weight and increase in brain water and Na^+: good protective effect
